Where a SMILES comes first, the peptide text is derived from it. The star is where a group is joined. Cbz = O=C(OCc1ccccc1)*
Key:
Assay type in all cases: biochemical
[1] = biological target: Chymotrypsin (Bos taurus, UniProt P00766); assay: Esterase assay, chymotrypsin; conditions: Z-AX-OMe substrate; for Esterase rate, Chymotrypsin: X = P1 residue, rates approximately ± 10%; for % of maximum activity, Chymotrypsin: percentage of the maximum activity
From the text: (§1) Advantage was taken of this activity to develop an "esterase" assay which uses a pH indicator to visualise the hydrogen ion release caused by the action of proteases on peptide-ester substrates. A series of twenty compounds of the form, carbobenzoxy alanyl-X-methyl ester (Z-AX-OMe) were synthesised where "X" is one of the naturally occurring amino acids. These substrates were used in a 96 well microtitre plate assay to screen each mutant enzyme for activity and specificity. The reactions were followed visually or quantified using a standard ELISA plate reader. The esterase assay, using trypsin as a test enzyme and Z-Ala-Arg-OMe as substrate, was more sensitive as than traditional trypsin substrates (three times the rate obtained with benzoyl arginine ethyl aster and twenty times the rate of benzoyl arginine p-nitroanilide) (Whittaker et al., Analytical Biochemistry, 220, 238-243, 1994).
(§2) The present inventors produced a panel of substrates carbobenzoxy alanyl-X-methyl eater (Z-AX-OMe) where X is one of the naturally occurring amino acids. The reactivity of these substrates with a number of serine proteases is set out in Table 1 and FIG. 1.
(§3) Rates are A580 change/min./mg protease. Rates are also shown as a […]

[2] = system: Trypsin; assay: Esterase assay, trypsin; conditions: Z-AX-OMe substrate; for Esterase rate, Trypsin: X = P1 residue, rates approximately ± 10%; for % of maximum activity, Trypsin: percentage of the maximum activity
From the text: as §1, §2, §3

[3] = biological target: Thrombin (Homo sapiens, UniProt P00734); assay: Esterase assay, thrombin; conditions: Z-AX-OMe substrate; for Esterase rate, Thrombin: X = P1 residue, rates approximately ± 10%; for % of maximum activity, Thrombin: percentage of the maximum activity
From the text: as §1, §2, §3

[4] = biological target: Elastase (Sus scrofa, UniProt P00772); assay: Esterase assay, elastase; conditions: Z-AX-OMe substrate; for Esterase rate, Elastase: X = P1 residue, rates approximately ± 10%; for % activity, Elastase: normalised to alanine
From the text: as §1, §2, §3

[5] = biological target: α-Lytic protease (Lysobacter enzymogenes, UniProt P00778); assay: Esterase assay, α-lytic protease; conditions: Z-AX-OMe substrate; for Esterase rate, α-Lytic protease: X = P1 residue, rates approximately ± 10%; for % activity, α-Lytic protease: normalised to alanine
From the text: as §1, §2, §3

[6] = system: Subtilisin; assay: Esterase assay, subtilisin; conditions: Z-AX-OMe substrate; for Esterase rate, Subtilisin: X = P1 residue, rates approximately ± 10%; for % of maximum activity, Subtilisin: percentage of the maximum activity
From the text: as §1, §2, §3

[7] = biological target: Proteinase K (Parengyodontium album, UniProt P06873); assay: Esterase assay, proteinase K; conditions: Z-AX-OMe substrate; for Esterase rate, Proteinase K: X = P1 residue, rates approximately ± 10%; for % of maximum activity, Proteinase K: percentage of the maximum activity
From the text: as §1, §2, §3

Chain of α-Lytic protease (P00778 25-397 limits assumed): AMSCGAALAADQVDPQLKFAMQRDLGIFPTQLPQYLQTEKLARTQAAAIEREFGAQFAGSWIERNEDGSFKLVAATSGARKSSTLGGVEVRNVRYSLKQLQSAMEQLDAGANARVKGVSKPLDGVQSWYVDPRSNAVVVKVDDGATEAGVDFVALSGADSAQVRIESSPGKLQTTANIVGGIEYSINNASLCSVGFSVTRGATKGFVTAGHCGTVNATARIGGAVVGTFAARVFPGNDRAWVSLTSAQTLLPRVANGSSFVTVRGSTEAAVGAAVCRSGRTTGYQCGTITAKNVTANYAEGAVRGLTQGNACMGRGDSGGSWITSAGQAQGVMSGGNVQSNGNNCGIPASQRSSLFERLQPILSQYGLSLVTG
Chain of Proteinase K (P06873 106-384): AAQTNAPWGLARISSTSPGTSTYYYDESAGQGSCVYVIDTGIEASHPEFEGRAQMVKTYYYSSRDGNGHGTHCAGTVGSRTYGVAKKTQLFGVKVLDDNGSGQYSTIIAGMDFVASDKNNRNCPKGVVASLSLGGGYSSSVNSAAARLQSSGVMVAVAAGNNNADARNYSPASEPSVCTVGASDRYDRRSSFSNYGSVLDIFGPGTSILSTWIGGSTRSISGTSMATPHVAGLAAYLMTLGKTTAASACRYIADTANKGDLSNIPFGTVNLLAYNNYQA
Chain of Elastase (P00772 27-266): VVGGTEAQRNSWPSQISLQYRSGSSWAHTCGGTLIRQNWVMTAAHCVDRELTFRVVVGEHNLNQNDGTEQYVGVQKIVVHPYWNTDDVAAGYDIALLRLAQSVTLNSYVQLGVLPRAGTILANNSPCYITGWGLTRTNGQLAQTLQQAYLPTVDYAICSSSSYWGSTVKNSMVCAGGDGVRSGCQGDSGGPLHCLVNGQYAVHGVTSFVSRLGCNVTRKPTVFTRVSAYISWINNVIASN

Structure (SMILES): COC(=O)[C@@H]1CCCN1C(=O)[C@H](C)NC(=O)OCc1ccccc1 [Pro] (Cbz-Ala-Pro-OMe)
- Esterase rate, Chymotrypsin [1]: 0 A580 change/min./mg protease
- % of maximum activity, Chymotrypsin [1]: 0%
- Esterase rate, Trypsin [2]: 0 A580 change/min./mg protease
- % of maximum activity, Trypsin [2]: 0%
- Esterase rate, Thrombin [3]: 0 A580 change/min./mg protease
- % of maximum activity, Thrombin [3]: 0%
- Esterase rate, Elastase [4]: 0 A580 change/min./mg protease
- % activity, Elastase [4]: 0%
- Esterase rate, α-Lytic protease [5]: 0 A580 change/min./mg protease
- % activity, α-Lytic protease [5]: 0%
- Esterase rate, Subtilisin [6]: trace
- Esterase rate, Proteinase K [7]: trace

Structure (SMILES): COC(=O)[C@H](CCCCN)NC(=O)[C@H](C)NC(=O)OCc1ccccc1 [Lys] (Cbz-Ala-Lys-OMe)
- Esterase rate, Chymotrypsin [1]: 1.5 A580 change/min./mg protease
- % of maximum activity, Chymotrypsin [1]: 2.7%
- Esterase rate, Trypsin [2]: 155.8 A580 change/min./mg protease
- % of maximum activity, Trypsin [2]: 44.0%
- Esterase rate, Thrombin [3]: 4.3 A580 change/min./mg protease
- % of maximum activity, Thrombin [3]: 49.0%
- Esterase rate, Elastase [4]: 0 A580 change/min./mg protease
- % activity, Elastase [4]: 0%
- Esterase rate, α-Lytic protease [5]: 0 A580 change/min./mg protease
- % activity, α-Lytic protease [5]: 0%
- Esterase rate, Subtilisin [6]: 153 A580 change/min./mg protease
- % of maximum activity, Subtilisin [6]: 7.1%
- Esterase rate, Proteinase K [7]: 61 A580 change/min./mg protease
- % of maximum activity, Proteinase K [7]: 7.9%

Structure (SMILES): COC(=O)CNC(=O)[C@H](C)NC(=O)OCc1ccccc1 [Gly] (Cbz-Ala-Gly-OMe)
- Esterase rate, Chymotrypsin [1]: 0 A580 change/min./mg protease
- % of maximum activity, Chymotrypsin [1]: 0%
- Esterase rate, Trypsin [2]: 0 A580 change/min./mg protease
- % of maximum activity, Trypsin [2]: 0%
- Esterase rate, Thrombin [3]: 0 A580 change/min./mg protease
- % of maximum activity, Thrombin [3]: 0%
- Esterase rate, Elastase [4]: 0 A580 change/min./mg protease
- % activity, Elastase [4]: 0%
- Esterase rate, α-Lytic protease [5]: 0 A580 change/min./mg protease
- % activity, α-Lytic protease [5]: 0%
- Esterase rate, Subtilisin [6]: 22 A580 change/min./mg protease
- % of maximum activity, Subtilisin [6]: 1.0%
- Esterase rate, Proteinase K [7]: 58 A580 change/min./mg protease
- % of maximum activity, Proteinase K [7]: 7.5%

Structure (SMILES): COC(=O)[C@H](CC(C)C)NC(=O)[C@H](C)NC(=O)OCc1ccccc1 [Leu] (Cbz-Ala-Leu-OMe)
- Esterase rate, Chymotrypsin [1]: 2.4 A580 change/min./mg protease
- % of maximum activity, Chymotrypsin [1]: 4.3%
- Esterase rate, Trypsin [2]: 0 A580 change/min./mg protease
- % of maximum activity, Trypsin [2]: 0%
- Esterase rate, Thrombin [3]: 0 A580 change/min./mg protease
- % of maximum activity, Thrombin [3]: 0%
- Esterase rate, Elastase [4]: 3.4 A580 change/min./mg protease
- % activity, Elastase [4]: 21.7%
- Esterase rate, α-Lytic protease [5]: 0 A580 change/min./mg protease
- % activity, α-Lytic protease [5]: 0%
- Esterase rate, Subtilisin [6]: 1329 A580 change/min./mg protease
- % of maximum activity, Subtilisin [6]: 61.8%
- Esterase rate, Proteinase K [7]: 240 A580 change/min./mg protease
- % of maximum activity, Proteinase K [7]: 31.0%

Structure (SMILES): COC(=O)[C@@H](NC(=O)[C@H](C)NC(=O)OCc1ccccc1)[C@@H](C)O [Thr] (Cbz-Ala-Thr-OMe)
- Esterase rate, Chymotrypsin [1]: trace
- Esterase rate, Trypsin [2]: 0 A580 change/min./mg protease
- % of maximum activity, Trypsin [2]: 0%
- Esterase rate, Thrombin [3]: 0 A580 change/min./mg protease
- % of maximum activity, Thrombin [3]: 0%
- Esterase rate, Elastase [4]: 3.1 A580 change/min./mg protease
- % activity, Elastase [4]: 19.7%
- Esterase rate, α-Lytic protease [5]: 4.2 A580 change/min./mg protease
- % activity, α-Lytic protease [5]: 67.7%
- Esterase rate, Subtilisin [6]: 123 A580 change/min./mg protease
- % of maximum activity, Subtilisin [6]: 5.7%
- Esterase rate, Proteinase K [7]: 90 A580 change/min./mg protease
- % of maximum activity, Proteinase K [7]: 11.6%

Structure (SMILES): COC(=O)[C@H](CC(N)=O)NC(=O)[C@H](C)NC(=O)OCc1ccccc1 [Asn] (Cbz-Ala-Asn-OMe)
- Esterase rate, Chymotrypsin [1]: 0.3 A580 change/min./mg protease
- % of maximum activity, Chymotrypsin [1]: 0.5%
- Esterase rate, Trypsin [2]: 0 A580 change/min./mg protease
- % of maximum activity, Trypsin [2]: 0%
- Esterase rate, Thrombin [3]: 0 A580 change/min./mg protease
- % of maximum activity, Thrombin [3]: 0%
- Esterase rate, Elastase [4]: 0 A580 change/min./mg protease
- % activity, Elastase [4]: 0%
- Esterase rate, α-Lytic protease [5]: 0 A580 change/min./mg protease
- % activity, α-Lytic protease [5]: 0%
- Esterase rate, Subtilisin [6]: 244 A580 change/min./mg protease
- % of maximum activity, Subtilisin [6]: 11.4%
- Esterase rate, Proteinase K [7]: 137 A580 change/min./mg protease
- % of maximum activity, Proteinase K [7]: 17.7%

Structure (SMILES): COC(=O)[C@H](CO)NC(=O)[C@H](C)NC(=O)OCc1ccccc1 [Ser] (Cbz-Ala-Ser-OMe)
- Esterase rate, Chymotrypsin [1]: trace
- Esterase rate, Trypsin [2]: 0 A580 change/min./mg protease
- % of maximum activity, Trypsin [2]: 0%
- Esterase rate, Thrombin [3]: 0 A580 change/min./mg protease
- % of maximum activity, Thrombin [3]: 0%
- Esterase rate, Elastase [4]: 0.4 A580 change/min./mg protease
- % activity, Elastase [4]: 3.6%
- Esterase rate, α-Lytic protease [5]: 0.7 A580 change/min./mg protease
- % activity, α-Lytic protease [5]: 11.3%
- Esterase rate, Subtilisin [6]: 366 A580 change/min./mg protease
- % of maximum activity, Subtilisin [6]: 17.0%
- Esterase rate, Proteinase K [7]: 348 A580 change/min./mg protease
- % of maximum activity, Proteinase K [7]: 44.9%
